From patent publication US12180187B2, “1-phenyl-5-azinylpyrazolyl-3-oxyalkyl acids and their use for controlling unwanted plant growth” (BAYER AKTIENGESELLSCHAFT, priority 2019, dated 2024)

Columns and labels:
STEME [1] = experiment: Pre-emergence action at 320 g/ha against STEME; type: in vivo, Stellaria media; details: greenhouse, scored visually after about 3 weeks vs untreated controls, 100% = plants have died, 0% = like control plants
Excerpt: b) Seeds of monocotyledonous and dicotyledonous weed plants and crop plants are placed in plastic or organic planting pots and covered with soil. The compounds of the invention, formulated in the form of wettable powders (WP) or as emulsion concentrates (EC), are then applied onto the surface of the covering soil as aqueous suspension or emulsion with addition of 0.5% additive at a water application rate of 600 l/ha (converted). After the treatment, the pots are placed in a greenhouse and kept under good growth conditions for the trial plants. After about 3 weeks, the effect of the preparations is scored visually in comparison with untreated controls as percentages. For example, 100% activity=the plants have died, 0% activity=like control plants. Tables 13 to 26 below show the effects of selected compounds of the general formula (I) on various harmful plants and at an application rate corresponding to 320 g/ha, which were obtained by the experimental procedure mentioned above.

LOLRI [2] = experiment: Pre-emergence action against LOLRI, 1280 g/ha; type: in vivo, Lolium rigidum; details: visual scoring after about 3 weeks vs untreated controls, 100% = plants have died, 0% = like control plants
Procedure, shortened: (§1)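 Soil-surface application after sowing, before emergence: WP or EC formulations in water with 0.5% additive, 600 litres per hectare, onto sandy loam pots. Damage rated visually in % relative to untreated plants after roughly 3 weeks in a greenhouse.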

SETVI [3] = experiment: Pre-emergence action against SETVI, 1280 g/ha; type: in vivo, Setaria viridis; details: visual scoring after about 3 weeks vs untreated controls, 100% = plants have died, 0% = like control plants
Procedure, shortened: as §1

AMARE [4] = experiment: Pre-emergence action at 320 g/ha against AMARE; type: in vivo, Amaranthus retroflexus; details: visual scoring after about 3 weeks vs untreated controls
Procedure, shortened: (§2)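 Compounds were sprayed onto soil over sown seeds as emulsions or suspensions with 0.5% additive at a water rate of 600 l/ha. After about 3 weeks in the greenhouse, effect was rated visually as percent (100% = died).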

STEME [5] = experiment: Pre-emergence action against STEME, 1280 g/ha; type: in vivo, Stellaria media; details: scored visually after about 3 weeks vs untreated controls (100% = plants have died)
Procedure, shortened: as §1

SETVI [6] = experiment: Pre-emergence action at 320 g/ha against SETVI; type: in vivo, Setaria viridis; details: visual scoring after about 3 weeks vs untreated controls
Procedure, shortened: as §2

DIGSA [7] = experiment: Pre-emergence action against DIGSA, 1280 g/ha; type: in vivo, Digitaria sanguinalis; details: visual scoring after about 3 weeks vs untreated controls, 100% = plants have died, 0% = like control plants
Procedure, shortened: as §1

POAAN [8] = experiment: Post-emergence action against POAAN, 1.28 kg/ha; type: in vivo, Poa annua; details: dosage 1280 g/ha, visual rating about 3 weeks after treatment vs untreated controls
Procedure, shortened: (§3)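 Greenhouse pot test, sandy loam; weeds sprayed post-emergence at one-leaf stage (2–3 weeks after sowing) with WP or EC formulation plus 0.5% additive, 600 l/ha water. Visual rating after about 3 weeks versus untreated controls, 100% = plants dead, 0% = like control.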

MATIN [9] = experiment: Pre-emergence action against MATIN, 1280 g/ha; type: in vivo, Tripleurospermum inodorum (Matricaria inodora); details: scored visually after about 3 weeks vs untreated controls (100% = plants have died)
Procedure, shortened: as §1

VERPE [10] = experiment: Post-emergence action against VERPE, 1.28 kg/ha; type: in vivo, Veronica persica; details: dosage 1280 g/ha, visual rating about 3 weeks after treatment vs untreated controls (100% = plants died)
Procedure, shortened: as §3

AVEFA = experiment: Post-emergence action at 320 g/ha against AVEFA; type: in vivo; details: visual rating about 3 weeks after treatment vs untreated controls
Procedure, shortened: (§4)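 Greenhouse pot plants in sandy loam received a foliar spray of WP- or EC-formulated compound at the one-leaf stage. Percent activity against untreated controls was assessed visually around three weeks later.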

VIOTR [11] = experiment: Post-emergence action at 320 g/ha against VIOTR; type: in vivo, Viola tricolor; details: visual rating about 3 weeks after treatment vs untreated controls
Procedure, shortened: as §4

ALOMY = experiment: Post-emergence action against ALOMY, 320 g/ha; type: in vivo, Alopecurus myosuroides; details: dosage 320 g/ha, visual rating about 3 weeks after treatment vs untreated controls (100% = plants died)
Procedure, shortened: as §4

DIGSA [12] = experiment: Pre-emergence action at 320 g/ha against DIGSA; type: in vivo, Digitaria sanguinalis; details: visual scoring after about 3 weeks vs untreated controls
Procedure, shortened: as §2

HORMU = experiment: Post-emergence action at 320 g/ha against HORMU; type: in vivo, Hordeum murinum; details: visual rating about 3 weeks after treatment vs untreated controls
Excerpt: Accordingly, the compounds of the invention have good herbicidal action against a broad spectrum of weed grasses and broad-leaved weeds and are therefore suitable for controlling unwanted vegetation by the post-emergence method. • b) Seeds of monocotyledonous and dicotyledonous weeds and crop plants are placed in sandy loam in plastic or organic planting pots, covered with soil and cultivated in a greenhouse under controlled growth conditions. 2 to 3 weeks after sowing, the test plants are treated at the one-leaf stage. The compounds of the invention, formulated in the form of wettable powders (WP) or as emulsion concentrates (EC), are then sprayed onto the green parts of the plants as aqueous suspension or emulsion with addition of 0.5% additive at a water application rate of 600 l/ha (converted). After the test plants have been kept in the greenhouse under optimum growth conditions for about 3 weeks, the activity of the preparations is rated visually in comparison to untreated controls. For example, 100% activity=the plants have died, 0% activity=like control plants. Tables 39 to 49 below show the effects of selected compounds of the general formula (I) according to Tables 1 and 2 on various harmful plants and at an application rate corresponding to 320 g/ha, which were obtained by the experimental procedure mentioned above.

AMARE [13] = experiment: Post-emergence action against AMARE, 1.28 kg/ha; type: in vivo, Amaranthus retroflexus; details: dosage 1280 g/ha, visual rating about 3 weeks after treatment vs untreated controls (100% = plants died)
Procedure, shortened: as §3

ABUTH = experiment: Post-emergence action against ABUTH, 1.28 kg/ha; type: in vivo, Abutilon theophrasti; details: dosage 1280 g/ha, visual rating about 3 weeks after treatment vs untreated controls (100% = plants died)
Procedure, shortened: as §3

DIGSA [14] = experiment: Post-emergence action against DIGSA, 1.28 kg/ha; type: in vivo, Digitaria sanguinalis; details: dosage 1280 g/ha, visual rating about 3 weeks after treatment vs untreated controls
Procedure, shortened: as §3

SETVI [15] = experiment: Post-emergence action at 320 g/ha against SETVI; type: in vivo, Setaria viridis; details: visual rating about 3 weeks after treatment vs untreated controls
Procedure, shortened: as §4

MATIN [16] = experiment: Post-emergence action against MATIN, 1.28 kg/ha; type: in vivo, Tripleurospermum inodorum (Matricaria inodora); details: dosage 1280 g/ha, visual rating about 3 weeks after treatment vs untreated controls (100% = plants died)
Procedure, shortened: as §3

VIOTR [17] = experiment: Pre-emergence action at 320 g/ha against VIOTR; type: in vivo, Viola tricolor; details: dosage 320 g/ha
Procedure, shortened: as §2

POLCO [18] = experiment: Post-emergence action at 320 g/ha against POLCO; type: in vivo, Fallopia convolvulus (Polygonum convolvulus); details: visual rating about 3 weeks after treatment vs untreated controls
Procedure, shortened: as §4

SETVI [19] = experiment: Post-emergence action against SETVI, 1.28 kg/ha; type: in vivo, Setaria viridis; details: dosage 1280 g/ha, visual rating about 3 weeks after treatment vs untreated controls
Procedure, shortened: as §3

POLCO [20] = experiment: Pre-emergence action at 320 g/ha against POLCO; type: in vivo, Fallopia convolvulus (Polygonum convolvulus); details: visual scoring after about 3 weeks vs untreated controls
Procedure, shortened: as §2

STEME [21] = experiment: Post-emergence action against STEME, 1.28 kg/ha; type: in vivo, Stellaria media; details: dosage 1280 g/ha, visual rating about 3 weeks after treatment vs untreated controls (100% = plants died)
Procedure, shortened: as §3

LOLRI [22] = experiment: Post-emergence action against LOLRI, 1.28 kg/ha; type: in vivo, Lolium rigidum; details: dosage 1280 g/ha, visual rating about 3 weeks after treatment vs untreated controls
Procedure, shortened: as §3

VERPE [23] = experiment: Pre-emergence action against VERPE, 1280 g/ha; type: in vivo, Veronica persica; details: scored visually after about 3 weeks vs untreated controls (100% = plants have died)
Procedure, shortened: as §1

AMARE [24] = experiment: Pre-emergence action against AMARE, 1280 g/ha; type: in vivo, Amaranthus retroflexus; details: scored visually after about 3 weeks vs untreated controls (100% = plants have died)
Procedure, shortened: as §1

ECHCG = experiment: Pre-emergence action against ECHCG, 1280 g/ha; type: in vivo, Echinochloa crus-galli; details: visual scoring after about 3 weeks vs untreated controls, 100% = plants have died, 0% = like control plants
Procedure, shortened: as §1

POAAN [25] = experiment: Pre-emergence action against POAAN, 1280 g/ha; type: in vivo, Poa annua; details: visual scoring after about 3 weeks vs untreated controls, 100% = plants have died, 0% = like control plants
Procedure, shortened: as §1

## COC(=O)C(C)Oc1nn(-c2ccccc2)c(-c2ccnc(Cl)c2)c1Cl (stereo not drawn) [VIII-001]
STEME [1]
  Pre-emergence action at 320 g/ha against STEME in %: 90%
LOLRI [2]
  Pre-emergence action against LOLRI: 100%
SETVI [3]
  Pre-emergence action against SETVI: 100%
AMARE [4]
  Pre-emergence action against AMARE in %: 90%
STEME [5]
  Pre-emergence action against STEME: 90%
SETVI [6]
  Pre-emergence action against SETVI in %: 100%
DIGSA [7]
  Pre-emergence action against DIGSA: 90%
POAAN [8]
  Post-emergence action against POAAN: 100%
MATIN [9]
  Pre-emergence action against MATIN: 90%
VERPE [10]
  Post-emergence action against VERPE: 100%
AVEFA
  Post-emergence action against AVEFA in %: 80%
VIOTR [11]
  Post-emergence action against VIOTR in %: 80%
ALOMY
  Post-emergence action against ALOMY: 90%
DIGSA [12]
  Pre-emergence action against DIGSA in %: 100%
HORMU
  Post-emergence action against HORMU in %: 80%
AMARE [13]
  Post-emergence action against AMARE: 90%
ABUTH
  Post-emergence action against ABUTH: 90%
DIGSA [14]
  Post-emergence action against DIGSA: 90%
SETVI [15]
  Post-emergence action against SETVI in %: 80%
MATIN [16]
  Post-emergence action against MATIN: 90%
VIOTR [17]
  Pre-emergence action against VIOTR in %: 90%
POLCO [18]
  Post-emergence action against POLCO in %: 90%
SETVI [19]
  Post-emergence action against SETVI: 90%
POLCO [20]
  Pre-emergence action against POLCO in %: 90%
STEME [21]
  Post-emergence action against STEME: 100%
LOLRI [22]
  Post-emergence action against LOLRI: 90%
VERPE [23]
  Pre-emergence action against VERPE: 100%
AMARE [24]
  Pre-emergence action against AMARE: 90%
ECHCG
  Pre-emergence action against ECHCG: 100%
POAAN [25]
  Pre-emergence action against POAAN: 100%
